This is an account of results in ChEMBL document CHEMBL1131278, “Synthesis and in vitro cancer cell growth inhibitory activity of monocyclic model compounds containing spongistatin triene side-chains” (Bioorg Med Chem Lett, 1998).

For orientation: GI50 means the concentration giving 50% growth inhibition. A lower GI50 goes with more potent growth inhibition. As usually defined, the IC50 is the concentration that inhibits the measured activity by half.

Converted amounts (≈) assume the structure as drawn. Some results are limits rather than exact numbers.

Common to all, as to assay type: functional
The subject of test [1] is SW-1736. In words: In vitro growth inhibitory activity against cancer cell line Thyroid ca SW 1736. The conditions noted are these: Homo sapiens.
Test [2] deals with NCI-H460. As to the kind of experiment: In vitro growth inhibitory activity against cancer cell line Lung-NSC NCI-H460. The conditions noted are these: Homo sapiens.
In test [3] the test system is FaDu. As to the kind of experiment: In vitro growth inhibitory activity against cancer cell line Pharynx-sq FADU. Particulars: Homo sapiens.
The test system of test [4] is BXPC-3. As to the kind of experiment: In vitro growth inhibitory activity against cancer cell line Pancreas-a BXPC-3. Particulars: Homo sapiens.
Test [5] has as its system DU-145. In words: In vitro growth inhibitory activity against cancer cell line Prostate DU-145. Particulars: Homo sapiens.
Test [6] relates to SK-N-SH. In words: In vitro growth inhibitory activity against cancer cell line Neuroblast SK-N-SH. The conditions noted are these: Homo sapiens.
For test [7], the target named is Tubulin alpha chain (Sus scrofa, UniProt P02550). As to the kind of experiment: Compound was tested for its ability to inhibit the glutamate induced polymerization of tubulin.
Tubulin alpha chain, sequence (P02550 whole entry, looked up): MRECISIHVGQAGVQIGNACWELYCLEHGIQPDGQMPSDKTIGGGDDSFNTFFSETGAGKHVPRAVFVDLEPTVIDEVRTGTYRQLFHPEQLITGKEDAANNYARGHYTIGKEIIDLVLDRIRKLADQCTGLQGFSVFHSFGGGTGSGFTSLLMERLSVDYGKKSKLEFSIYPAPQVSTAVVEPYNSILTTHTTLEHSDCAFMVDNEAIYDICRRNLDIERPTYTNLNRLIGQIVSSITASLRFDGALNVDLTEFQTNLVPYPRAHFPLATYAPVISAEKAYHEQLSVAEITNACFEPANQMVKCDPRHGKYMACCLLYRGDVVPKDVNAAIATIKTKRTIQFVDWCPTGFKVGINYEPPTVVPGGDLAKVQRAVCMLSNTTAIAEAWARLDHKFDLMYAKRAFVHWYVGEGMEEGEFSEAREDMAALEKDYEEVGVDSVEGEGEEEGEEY

Turning to `C=C(Cl)/C=C/[C@@H](O)CC(=C)C[C@H]1O[C@H](OC)[C@H](OCc2ccccc2)[C@@H](OCc2ccccc2)[C@@H]1OCc1ccccc1`, the GI50 in test [1] is 5.8 µg/mL (≈ 9.58 µM); in test [2], 6.6 µg/mL (≈ 10.9 µM); in test [3], 5 µg/mL (≈ 8.26 µM); in test [4] it was 3.2 µg/mL (≈ 5.29 µM); in test [5] it was above 10 µg/mL; in test [6] it was 2.2 µg/mL (≈ 3.64 µM).
For `C=C/C=C/[C@@H](O)CC(=C)C[C@H]1O[C@H](OC)[C@H](OCc2ccccc2)[C@@H](OCc2ccccc2)[C@@H]1OCc1ccccc1`, the GI50 in test [1] is 0.7 µg/mL (≈ 1.23 µM); in test [2] it was 0.26 µg/mL (≈ 0.456 µM); in test [3], 0.27 µg/mL (≈ 0.473 µM); in test [4] it was 0.25 µg/mL (≈ 0.438 µM); in test [5], 0.32 µg/mL (≈ 0.561 µM); in test [6], 0.31 µg/mL (≈ 0.543 µM).
In test [7], `C=C(Cl)/C=C/[C@@H](O)C(C)C(=C)C[C@H]1O[C@@H]2[C@H](C)[C@@H](OC(=O)C[C@H]3C[C@H](OC(C)=O)C[C@@]4(C[C@@](C)(O)C[C@H](CC(=C)[C@@H](C)[C@H](OC(C)=O)[C@H](C)C(=O)C[C@@H]5C[C@H](OC)C[C@@]6(C[C@@H](O)C[C@H](/C=C\CCC[C@H]7O[C@](O)(C[C@H](O)[C@H]7C)[C@H]2O)C6)O5)O4)O3)[C@@H]1O` (stereo partly drawn) [Spongistatin-1] came in with an IC50 of 3.6 µM.
